Measurements published in patent US20100152188A1, “Novel Heterocyclic Compounds” (priority 2005, published 2010).
Like-named read-outs stand apart in the source and are kept apart here.

Columns and labels:
[1] = system: NCIH460; experiment: Anti-cancer screen (MTT), NCIH460; assay type: cell-based; conditions: Homo sapiens, NCI-H460, 48 hours with compound, tested at 0.01-100 µM
Method in brief: (§1)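 Growth inhibition is measured by MTT reduction after 48 h treatment of cells grown in DMEM with 10% fetal bovine serum. Percent growth uses T0 viability, measured just before dosing, so that net cell kill yields negative values and an LC50.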

[2] = system: HCT116; experiment: Anti-cancer screen (MTT), HCT116; assay type: cell-based; conditions: Homo sapiens, HCT-116, 48 hours with compound, tested at 0.01-100 µM
Method in brief: as §1

[3] = system: MDAMB-231/U 251; experiment: Anti-cancer screen (MTT), MDAMB-231/U 251; assay type: cell-based; conditions: for CC50: read-out: MDAMB-231/U 251 LC50
Method in brief: as §1

[4] = system: NCIH460, HCT116, MDAMB-231/U 251; experiment: Anti-cancer screen, mean GI50 over the cell lines; assay type: cell-based; conditions: in µM
Method in brief: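 HCT116, NCIH460 and U251 cells (5000/well) were seeded for 24 h, then exposed in triplicate to 0.01, 0.1, 1, 10 and 100 µM final compound for 48 h. Viability was read by MTT (3 h, absorbance 570 nm), and percent growth was calculated against untreated controls and a T0 plate read at compound addition.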

[5] = system: HDAC; experiment: HDAC inhibition; assay type: biochemical; conditions: for HDAC Inhibition 1 μM: compound at 1 μM; for HDAC Inhibition 10 μM: compound at 10 μM
[6] = 48 hours with compound, MTT, tested at 0.01-100 µM

SMILES	GI50 [1]	IC (TGI) [1]	LC50 [1]	GI50 [2]	IC (TGI) [2]	CC50 ([2]; read-out: HCT116 LC50)	GI50 [3, 6]	IC (TGI) [3, 6]	CC50 [3, 6]	Mean GI50 [4]	HDAC Inhibition 1 μM [5]	HDAC Inhibition 10 μM [5]	LC50 (concentration giving 50% net cell kill relative to T0) [2]	CC50 ([3]; 48 h)	IC50 [5]
CC(=O)N(O)C(=O)Cc1csc(NC(=O)OCc2ccc(Br)s2)n1 [Example 78, (5-bromo-2-thienyl)methyl(4-{2-[acetyl(hydroxy)amino]-2-oxoethyl}-1,3-thiazol-2-yl)carbamate]	6.5 µM	45 µM	> 100 µM	30 µM	80 µM	> 100 µM	20 µM	75 µM	> 100 µM	18.8	3.61	35.88	–	–	–
O=C(CCCNC(=O)Cc1csc(NC(=O)OCc2nc3ccccc3s2)n1)NO [Example 91, 1,3-Benzothiazol-2-ylmethyl[4-(2-{[4-(hydroxyamino)-4-oxobutyl]amino}-2-oxoethyl)-1,3-thiazol-2-yl]carbamate]	35 µM	> 100 µM	> 100 µM	51 µM	> 100 µM	–	21 µM	89 µM	–	35.7	10.73	25.05	> 100 µM	> 100 µM	–
CN(O)C(=O)c1ccc(CNC(=O)OCc2c(F)c(F)c(F)c(F)c2F)cc1 [Example 47, Tentafluorobenzyl(4-{[hydroxy(methyl)amino]carbonyl}benzyl)carbamate]	56 µM	> 100 µM	> 100 µM	52 µM	> 100 µM	–	37 µM	74 µM	–	48.33	−5.89	−2.12	> 100 µM	> 100 µM	–
O=C(Nc1nc(CC(=O)N2CCCCC2)cs1)OCc1cccnc1 [Example 12, Pyridin-3-ylmethyl[4-(2-oxo-2-piperidin-1-ylethyl)-1,3-thiazol-2-yl]carbamate]	50 µM	100 µM	> 100 µM	> 100 µM	> 100 µM	–	50 µM	> 100 µM	–	50	–	10.83	> 100 µM	> 100 µM	–
O=C(CSC(F)F)Nc1cccc(NC(=O)c2ccc(CNC(=O)OCc3cccs3)cc2)c1 [Example 108, 2-Thienylmethyl[4-({[3-({[(difluoromethyl)thio]acetyl}amino)phenyl]amino}carbonyl)benzyl]carbamate]	9.5 µM	> 100 µM	> 100 µM	100 µM	> 100 µM	–	5 µM	15 µM	–	>100	−8.74	−0.86	> 100 µM	> 100 µM	–
N/C(=N/O)c1ccc(NC(=O)OCc2cccs2)cc1 [Example 110, 2-thienylmethyl{4-[(E)-amino(hydroxyimino)-methyl]-phenyl}-carbamate]	> 100 µM	> 100 µM	> 100 µM	80 µM	> 100 µM	–	10 µM	> 100 µM	–	>100	17.50	52.34	> 100 µM	> 100 µM	–
O=C(NCc1ccc(C(=O)NO)cc1)OCc1nccs1 [Example 31, 1,3-Thiazol-2-ylmethyl{4-[(hydroxyamino)carbonyl]benzyl}carbamate]	0.02 µM	0.9 µM	92 µM	0.02 µM	0.97 µM	–	32 µM	> 100 µM	–	10.7	82.6	87.4	39 µM	> 100 µM	0.13 µM
O=C(CCCNC(=O)Cc1csc(NC(=O)OCc2nccs2)n1)NO [Example 95, 1,3-Thiazol-2-ylmethyl[4-(2-{[4-(hydroxyamino)-4-oxobutyl]amino}-2-oxoethyl)-1,3-thiazol-2-yl]carbamate]	93 µM	> 100 µM	> 100 µM	> 100 µM	> 100 µM	–	> 100 µM	> 100 µM	–	>100	−2.89	4.19	> 100 µM	> 100 µM	–
O=C(NCc1ccc(C(=O)NO)cc1)OCc1ccnc2ccccc12 [Example 37, Quinolin-4-ylmethyl{4-[(hydroxyamino)carbonyl]benzyl}carbamate]	30 µM	58 µM	90 µM	6 µM	20 µM	–	4 µM	18 µM	–	13.3	67.04	85.01	65 µM	95 µM	–
CONC(=O)c1ccc(CNC(=O)OCc2cccs2)cc1 [Example 43, 2-Thienylmethyl{4-[(methoxyamino)carbonyl]benzyl}carbamate]	> 100 µM	> 100 µM	> 100 µM	> 100 µM	> 100 µM	–	> 100 µM	> 100 µM	–	>100	1.9	8.10	> 100 µM	> 100 µM	–
O=C(CCCCNC(=O)Cc1csc(NC(=O)OCc2nc3ccccc3s2)n1)NO [Example 93, 1,3-Benzothiazol-2-ylmethyl[4-(2-{[5-(hydroxyamino)-5-oxopentyl]amino}-2-oxoethyl)-1,3-thiazol-2-yl]carbamate]	50 µM	> 100 µM	> 100 µM	40 µM	88 µM	–	7 µM	55 µM	–	32.3	26.26	76.23	> 100 µM	> 100 µM	–
CC(=O)ONC(=O)c1ccc(CNC(=O)OCc2cccs2)cc1 [Example 82, 2-Thienylmethyl(4-{[(acetyloxy)amino]carbonyl}benzyl)carbamate]	24 µM	62 µM	> 100 µM	7 µM	41 µM	–	28 µM	52 µM	–	19.66	48.96	86.12	78 µM	> 100 µM	–
Nc1cccc(NC(=O)c2ccc(CNC(=O)OCc3cccs3)cc2)c1 [Example 55, 2-Thienylmethyl(4-{[(3-aminophenyl)amino]carbonyl}benzyl)carbamate]	4 µM	40 µM	> 100 µM	18 µM	> 100 µM	–	0.07 µM	0.6 µM	–	7	7.41	26	> 100 µM	45 µM	–
